IC50 data for one compound are collected here from patent US20080255143A1, “Inhibitors of Akt Activity” (SMITHKLINE BEECHAM CORPORATION, priority 2003, published 2008).

What all share (format): biochemical
Details in all cases: catalytic domain, 10 nM activated enzyme, 4 uM ATP, 8 uM peptide, 40 minutes at room temperature

One assay concerns the target T1, delta-PH AKT1 (Homo sapiens, UniProt P31749).
T1 construct: Insect cells expressing His-tagged AKT1 (aa 136-480) were lysed; His; made in house; host or cells: insect cells
Briefly: AKT enzyme assay (substrate phosphorylation, SPA), AKT1. As for the experimental part:
Insect cells expressing His-tagged AKT1 (aa 136-480) were lysed in 25 mM HEPES, 100 mM NaCl, 20 mM imidazole; pH 7.5 using a polytron (5 mLs lysis buffer/g cells). Cell debris was removed by centrifuging at 28,000×g for 30 minutes. The supernatant was filtered through a […] filter then loaded onto a nickel-chelating column pre-equilibrated with lysis buffer. The column was washed with 5 column volumes (CV) of lysis buffer then with 5 CV of 20% buffer B, where buffer B is 25 mM HEPES, 100 mM NaCl, 300 mM imidazole; pH 7.5. His-tagged AKT1 (aa 136-480) was eluted with a 20-100% linear gradient of buffer B over 10 CV. His-tagged AKT1 (136-480) eluting fractions were pooled and diluted 3-fold with buffer C, where buffer C is 25 mM HEPES, pH 7.5. […]
Compounds of the present invention were tested for AKT 1, 2, and 3 protein serine kinase inhibitory activity in substrate phosphorylation assays. […] Substrate phosphorylation was detected by the following procedure:
Assays were performed in 384 well U-bottom white plates. […] The reaction was stopped by the addition of 50 ul SPA bead mix (Dulbecco's PBS without Mg^2+ and Ca^2+, 0.1% Triton X-100, 5 mM EDTA, 50 uM ATP, 2.5 mg/ml Streptavidin-coated SPA beads.) The plate was sealed, the beads were allowed to settle overnight, and then the plate was counted in a Packard Topcount Microplate Scintillation Counter (Packard Instrument Co., Meriden, Conn.). […]

The target in a further assay is T2, delta-PH AKT2 (Homo sapiens, UniProt P31751).
T2 construct: His-tagged AKT2 (aa 138-481) and His-tagged AKT3 (aa 135-479) were isolated; His; made in house; host or cells: insect cells (only by 'in a similar fashion' to AKT1)
T2 sequence (P31751 138-481): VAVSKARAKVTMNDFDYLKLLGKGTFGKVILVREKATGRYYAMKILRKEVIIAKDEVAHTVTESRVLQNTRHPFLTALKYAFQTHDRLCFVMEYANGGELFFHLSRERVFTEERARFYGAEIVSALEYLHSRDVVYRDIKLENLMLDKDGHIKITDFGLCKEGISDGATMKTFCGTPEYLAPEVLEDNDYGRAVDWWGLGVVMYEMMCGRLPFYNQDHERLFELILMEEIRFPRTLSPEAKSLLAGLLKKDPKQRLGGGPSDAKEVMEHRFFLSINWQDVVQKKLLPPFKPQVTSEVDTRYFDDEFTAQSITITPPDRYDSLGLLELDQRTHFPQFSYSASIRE
Briefly: AKT enzyme assay (substrate phosphorylation, SPA), AKT2. As for the experimental part: (§1) His-tagged AKT2 (aa 138-481) and His-tagged AKT3 (aa 135-479) were isolated and purified in a similar fashion.
(§2) Compounds of the present invention were tested for AKT 1, 2, and 3 protein serine kinase inhibitory activity in substrate phosphorylation assays. This assay examines the ability of small molecule organic compounds to inhibit the serine phosphorylation of a peptide substrate. The substrate phosphorylation assays use the catalytic domains of AKT 1, 2, or 3. […] Substrate phosphorylation was detected by the following procedure:
(§3) Assays were performed in 384 well U-bottom white plates. […] The reaction was stopped by the addition of 50 ul SPA bead mix (Dulbecco's PBS without Mg^2+ and Ca^2+, 0.1% Triton X-100, 5 mM EDTA, 50 uM ATP, 2.5 mg/ml Streptavidin-coated SPA beads.) The plate was sealed, the beads were allowed to settle overnight, and then the plate was counted in a Packard Topcount Microplate Scintillation Counter (Packard Instrument Co., Meriden, Conn.).
(§4) The data for dose responses were plotted as % Control calculated with the data reduction formula 100*(U1-C2)/(C1-C2) versus concentration of compound where U is the unknown value, C1 is the average control value obtained for DMSO, and C2 is the average control value obtained for 0.1M EDTA. […]

A further assay concerns the target T3, delta-PH AKT3 (Homo sapiens, UniProt Q9Y243).
T3 construct: His-tagged AKT2 (aa 138-481) and His-tagged AKT3 (aa 135-479) were isolated; His; made in house; host or cells: insect cells (only by 'in a similar fashion' to AKT1)
Briefly: AKT enzyme assay (substrate phosphorylation, SPA), AKT3. As for the experimental part: as §1, §2, §3, §4

Structures can show the parent of a compound that is named as a salt.

T1 sequence (P31749 136-480): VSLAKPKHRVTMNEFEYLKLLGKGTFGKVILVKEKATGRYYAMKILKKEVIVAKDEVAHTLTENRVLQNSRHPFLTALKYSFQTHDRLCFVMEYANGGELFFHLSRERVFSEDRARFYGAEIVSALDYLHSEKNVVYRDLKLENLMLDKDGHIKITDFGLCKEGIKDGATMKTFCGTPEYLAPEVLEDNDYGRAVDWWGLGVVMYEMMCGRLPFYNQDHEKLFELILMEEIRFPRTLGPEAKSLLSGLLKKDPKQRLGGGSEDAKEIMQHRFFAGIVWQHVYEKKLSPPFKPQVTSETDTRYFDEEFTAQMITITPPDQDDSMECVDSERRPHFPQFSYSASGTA
T3 sequence (Q9Y243 135-479): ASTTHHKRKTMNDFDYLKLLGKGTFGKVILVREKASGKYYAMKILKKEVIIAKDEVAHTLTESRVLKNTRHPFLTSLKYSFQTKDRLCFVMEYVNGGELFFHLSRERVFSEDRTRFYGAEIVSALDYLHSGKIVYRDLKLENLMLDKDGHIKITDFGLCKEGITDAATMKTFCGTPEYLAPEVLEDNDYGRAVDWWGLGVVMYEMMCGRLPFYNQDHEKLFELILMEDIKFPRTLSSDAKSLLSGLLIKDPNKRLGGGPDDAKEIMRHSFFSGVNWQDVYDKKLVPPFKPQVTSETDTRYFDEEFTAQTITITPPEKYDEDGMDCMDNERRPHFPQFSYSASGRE

By IC50 is commonly meant the concentration that gives 50% inhibition. As to `CCn1c(-c2nonc2N)nc2c(-c3cccc(Cl)c3)ncc(NCCCNC[C@H](O)CO)c21` [Example 236, (S)-3-[3-[2-(4-amino-furazan-3-yl)-4-(3-chloro-phenyl)-1-ethyl-1H-imidazo[4,5-c]pyridin-7-ylamino]-propylamino]-propane-1,2-diol trifluoroacetate], the IC50 amounted to 0.069 µM at delta-PH AKT1, 0.038 µM at delta-PH AKT2 and 0.032 µM on delta-PH AKT3.
